Experimental data taken from US20070031902A1, “Predictive Methods For Cancer Chemotherapy” (priority 2005, published 2007).
Entries after “also recorded” stand apart in the source; their conditions may differ.

Key:
Format in all cases: cell-based, human
[1] = test system: mTOR; experiment: IHC and image analysis of mTOR under DFO-induced hypoxia; details: 50 μM DFO overnight vs vehicle; consistently high
Protocol: (§1) These markers were evaluated by immunohistochemistry (“IHC”) and image analysis in the presence of Desferrioxarnine (“DFO”)-induced hypoxia, as well as in its absence, or normoxia. DFO is an iron-chelating agent known to induce hypoxia, and was used in these experiments as a model for hypoxia. All IHC analyses were carried out on either the BenchMark XT® or Discovery XT® (Ventana Medical Systems, Inc., Tucson Ariz. (“VMSI”)) staining platforms. Primary antibodies were obtained from commercial sources (See Table 1). Controls were vehicle treated. […] Primary antibodies were detected using the DABMapTM, OmniMapTM (Discovery XT®), or iViewTM DAB (BenchMark XT®) detection kit according to the manufacturer's instructions. […] Detection Kit detected specific mouse IgG, IgM and rabbit IgG antibodies bound to an antigen in paraffin-embedded or frozen tissue section. […] Staining intensities, percentage of reactive cells, and cellular localization were recorded. […] Slides were reviewed and scored by the pathologist prior to quantitation by optical imaging. For optical imaging, a digital application (VMSI) with image quantification based on the intensity (expressed as average optical density, or avg. OD) of the stain converted to a numerical score was utilized. […]

[2] = test system: pTSC2; experiment: IHC and image analysis of pTSC2 under DFO-induced hypoxia; details: Jurkat cells, 50 μM DFO overnight vs vehicle
Protocol: as §1

[3] = test system: pAKT; experiment: IHC and image analysis of pAKT under DFO-induced hypoxia; details: Jurkat cells, 50 μM DFO overnight vs vehicle
Protocol: as §1

[4] = test system: pERK (p44/p42); experiment: IHC and image analysis of pERK (p44/p42) under DFO-induced hypoxia; details: 50 μM DFO overnight vs vehicle; negative in Jurkat cells, positive in HT1080 cells
Protocol: as §1

[5] = test system: pS6; experiment: IHC and image analysis of pS6 under DFO-induced hypoxia; details: Jurkat cells, 50 μM DFO overnight vs vehicle
Protocol: These markers were evaluated by immunohistochemistry (“IHC”) and image analysis in the presence of Desferrioxarnine (“DFO”)-induced hypoxia, as well as in its absence, or normoxia. DFO is an iron-chelating agent known to induce hypoxia, and was used in these experiments as a model for hypoxia. All IHC analyses were carried out on either the BenchMark XT® or Discovery XT® (Ventana Medical Systems, Inc., Tucson Ariz. (“VMSI”)) staining platforms. Primary antibodies were obtained from commercial sources (See Table 1). Controls were vehicle treated. […] Primary antibodies were detected using the DABMapTM, OmniMapTM (Discovery XT®), or iViewTM DAB (BenchMark XT®) detection kit according to the manufacturer's instructions. […] Detection Kit detected specific mouse IgG, IgM and rabbit IgG antibodies bound to an antigen in paraffin-embedded or frozen tissue section. […]

[6] = test system: p4EBP1; experiment: IHC and image analysis of p4EBP1 under DFO-induced hypoxia; details: Jurkat cells, 50 μM DFO overnight vs vehicle
Protocol: as §1

[7] = test system: HIF-1α; experiment: IHC and image analysis of HIF-1α in HT1080 cells (DFO, PX-478 dose escalation); details: DFO vs vehicle
[8] = test system: pmTOR; experiment: IHC and image analysis of pmTOR under DFO-induced hypoxia; details: Jurkat cells, 50 μM DFO overnight vs vehicle
Protocol: as §1

[9] = test system: HIF-1α; experiment: FACS of hypoxia-induced HIF-1α expression in Jurkat tumor cell line; details: after treatment with DFO
Protocol: FIG. 6 illustrates the fluorescence-activated cell sorting (FACS) results of hypoxia-induced HIF-1α expression in a Jurkat tumor cell line. IHC was conducted and assessed according to the procedures detailed in Example 1. Western Blotting and FACS analysis were conducted using standard conditions.

[10] = test system: HIF-1α; experiment: IHC and image analysis of HIF-1α in Jurkat cells under DFO-induced hypoxia; details: 50 μM DFO overnight vs vehicle
Protocol: as §1

[11] = test system: pMEK; experiment: IHC and image analysis of pMEK under DFO-induced hypoxia; details: Jurkat cells, 50 μM DFO overnight vs vehicle
Protocol: as §1

CC(=O)N(O)CCCCCNC(=O)CCC(=O)N(O)CCCCCNC(=O)CCC(=O)N(O)CCCCCN [DFO, desferrioxamine]
level of mTOR (IHC) [1]: No change
pTSC2 level of expression or activation (IHC) [2]: no change
pAKT level of expression or activation (IHC) [3]: no change
level of pERK (IHC) [4]: No change
pS6 expression (IHC) [5]: decrease in expression
p4EBP1 expression (IHC) [6]: decrease in expression
HIF-1α expression (IHC) [7]: increased expression
pmTOR expression (IHC) [8]: increase in expression
HIF-1α (FACS) [9]: increase in HIF-1α
HIF-1α expression (IHC) [10]: increase in expression; also recorded: increased expression
pMEK expression (IHC) [11]: decrease in expression
